From ChEMBL document CHEMBL3244053, “Structural modification study of bis(substituted aminoalkylamino)anthraquinones. An evaluation of the relationship of the [2-[(2-hydroxyethyl)amino]ethyl]amino side chain with antineoplastic activity” (1979)
Calls of active or inactive are those of the source. The rule behind the calls is not given here.

What was measured:
[1] = tested on: B16; test: Antineoplastic activity against mouse B16 cells allografted in BDF1 mouse at 7.5 mg/kg qd for 9 days relative to control; assay type: functional
[2] = tested on: L1210; test: Antineoplastic activity against mouse L1210 cells allografted in CDF1 mouse at 15 mg/kg qd for 9 days relative to control; assay type: functional
[3] = tested on: Colon 26; test: Antineoplastic activity against mouse Colon 26 cells allografted in CDF1 mouse at 15 mg/kg qd for 9 days relative to control; assay type: functional
[4] = tested on: P388; test: Antineoplastic activity against mouse P388 cells allografted in CDF1 mouse at 2.5 mg/kg qd for 9 days relative to control; assay type: functional
[5] = tested on: L1210; test: Antineoplastic activity against mouse L1210 cells allografted in CDF1 mouse assessed as survival at 7.5 mg/kg qd for 9 days; assay type: functional, organism-based; parameters: dose 7.5 mg/kg
[6] = tested on: B16; test: Antineoplastic activity against mouse B16 cells allografted in BDF1 mouse assessed as survival at 1.88 mg/kg qd for 9 days; assay type: functional, organism-based; parameters: dose 1.88 mg/kg
[7] = tested on: L1210; test: Antineoplastic activity against mouse L1210 cells allografted in CDF1 mouse assessed as survival at 1.88 mg/kg qd for 9 days; assay type: functional, organism-based; parameters: dose 1.88 mg/kg
[8] = tested on: P388; test: Antineoplastic activity against mouse P388 cells allografted in CDF1 mouse assessed as survival at 20 mg/kg qd for 9 days; assay type: functional, organism-based; parameters: dose 20 mg/kg
[9] = tested on: P388; test: Antineoplastic activity against mouse P388 cells allografted in CDF1 mouse assessed as survival at 10 mg/kg qd for 9 days; assay type: functional, organism-based; parameters: dose 10 mg/kg
[10] = tested on: B16; test: Antineoplastic activity against mouse B16 cells allografted in BDF1 mouse assessed as survival at 30 mg/kg qd for 9 days; assay type: functional, organism-based; parameters: dose 30 mg/kg
[11] = tested on: B16; test: Antineoplastic activity against mouse B16 cells allografted in BDF1 mouse assessed as survival at 3.75 mg/kg qd for 9 days; assay type: functional, organism-based; parameters: dose 3.75 mg/kg
[12] = tested on: Colon 26; test: Antineoplastic activity against mouse Colon 26 cells allografted in CDF1 mouse assessed as survival at 3.75 mg/kg qd for 9 days; assay type: functional, organism-based; parameters: dose 3.75 mg/kg
[13] = tested on: Colon 26; test: Antineoplastic activity against mouse Colon 26 cells allografted in CDF1 mouse assessed as survival at 7.5 mg/kg qd for 9 days; assay type: functional, organism-based; parameters: dose 7.5 mg/kg
[14] = tested on: B16; test: Antineoplastic activity against mouse B16 cells allografted in BDF1 mouse at 30 mg/kg qd for 9 days relative to control; assay type: functional
[15] = tested on: L1210; test: Antineoplastic activity against mouse L1210 cells allografted in CDF1 mouse at 7.5 mg/kg qd for 9 days relative to control; assay type: functional
[16] = tested on: P388; test: Antineoplastic activity against mouse P388 cells allografted in CDF1 mouse assessed as survival at 2.5 mg/kg qd for 9 days; assay type: functional, organism-based; parameters: dose 2.5 mg/kg
[17] = tested on: Colon 26; test: Antineoplastic activity against mouse Colon 26 cells allografted in CDF1 mouse assessed as survival at 15 mg/kg qd for 9 days; assay type: functional, organism-based; parameters: dose 15 mg/kg
[18] = tested on: L1210; test: Antineoplastic activity against mouse L1210 cells allografted in CDF1 mouse assessed as survival at 15 mg/kg qd for 9 days; assay type: functional, organism-based; parameters: dose 15 mg/kg
[19] = tested on: P388; test: Antineoplastic activity against mouse P388 cells allografted in CDF1 mouse at 20 mg/kg qd for 9 days relative to control; assay type: functional
[20] = tested on: B16; test: Antineoplastic activity against mouse B16 cells allografted in BDF1 mouse at 15 mg/kg qd for 9 days relative to control; assay type: functional
[21] = tested on: Colon 26; test: Antineoplastic activity against mouse Colon 26 cells allografted in CDF1 mouse at 7.5 mg/kg qd for 9 days relative to control; assay type: functional
[22] = tested on: B16; test: Antineoplastic activity against mouse B16 cells allografted in BDF1 mouse assessed as survival at 15 mg/kg qd for 9 days; assay type: functional, organism-based; parameters: dose 15 mg/kg
[23] = tested on: B16; test: Antineoplastic activity against mouse B16 cells allografted in BDF1 mouse at 1.88 mg/kg qd for 9 days relative to control; assay type: functional
[24] = tested on: P388; test: Antineoplastic activity against mouse P388 cells allografted in CDF1 mouse at 10 mg/kg qd for 9 days relative to control; assay type: functional
[25] = tested on: L1210; test: Antineoplastic activity against mouse L1210 cells allografted in CDF1 mouse at 3.75 mg/kg qd for 9 days relative to control; assay type: functional
[26] = tested on: P388; test: Antineoplastic activity against mouse P388 cells allografted in CDF1 mouse assessed as survival at 5 mg/kg qd for 9 days; assay type: functional, organism-based; parameters: dose 5 mg/kg
[27] = tested on: Colon 26; test: Antineoplastic activity against mouse Colon 26 cells allografted in CDF1 mouse at 3.75 mg/kg qd for 9 days relative to control; assay type: functional
[28] = tested on: L1210; test: Antineoplastic activity against mouse L1210 cells allografted in CDF1 mouse assessed as survival at 3.75 mg/kg qd for 9 days; assay type: functional, organism-based; parameters: dose 3.75 mg/kg
[29] = tested on: L1210; test: Antineoplastic activity against mouse L1210 cells allografted in CDF1 mouse at 1.88 mg/kg qd for 9 days relative to control; assay type: functional
[30] = tested on: Colon 26; test: Antineoplastic activity against mouse Colon 26 cells allografted in CDF1 mouse at 1.88 mg/kg qd for 9 days relative to control; assay type: functional
[31] = tested on: P388; test: Antineoplastic activity against mouse P388 cells allografted in CDF1 mouse at 5 mg/kg qd for 9 days relative to control; assay type: functional
[32] = tested on: Colon 26; test: Antineoplastic activity against mouse Colon 26 cells allografted in CDF1 mouse assessed as survival at 1.88 mg/kg qd for 9 days; assay type: functional, organism-based; parameters: dose 1.88 mg/kg
[33] = tested on: B16; test: Antineoplastic activity against mouse B16 cells allografted in BDF1 mouse assessed as survival at 7.5 mg/kg qd for 9 days; assay type: functional, organism-based; parameters: dose 7.5 mg/kg
[34] = tested on: B16; test: Antineoplastic activity against mouse B16 cells allografted in BDF1 mouse at 3.75 mg/kg qd for 9 days relative to control; assay type: functional

`O=C1c2ccccc2C(=O)c2c(NCCNCCO)ccc(O)c21` was tested, and the T/C [1] was 254%, the T/C [2] was 151% and the T/C [3] was 182%. For the same molecule, the T/C [4] was 216%, the Activity [5] was “Active” and the Activity [6] was “Active”. For the same molecule, the Activity [7] was “Active”, the Activity [8] was “Active” and the Activity [9] was “Active”. For the same molecule, the Activity [10] was “Active”, the Activity [11] was “Active” and the Activity [12] was “Active”. The Activity [13] was “Active”, the T/C [14] was 326% and the T/C [15] was 193%. The Activity [16] was “Active”, the Activity [17] was “Active” and the Activity [18] was “Active”. For the same molecule, the T/C [19] was 178%, the T/C [20] was 271% and the T/C [21] was 196%. For the same molecule, the Activity [22] was “Active”, the T/C [23] was 157% and the T/C [24] was 342%. For the same molecule, the T/C [25] was 147%, the Activity [26] was “Active” and the T/C [27] was 177%. For the same molecule, the Activity [28] was “Active”, the T/C [29] was 136% and the T/C [30] was 162%. The T/C [31] was 226%, the Activity [32] was “Active” and the Activity [33] was “Active”. The T/C [34] was 201%.
